Measurements: PubChem BioAssay (NCI)
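In this assay, cells in 96-well plates receive the compound at five concentrations for 48 hours. Endpoints are linearly interpolated between the surrounding concentrations. GI50: concentration for 50% inhibition of growth. TGI: concentration producing complete growth inhibition.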

Legend:
Assay in all cases: growth of human tumour cells (NCI), 48 h
[1] = tested on: U251 CNS
[2] = tested on: HS 578T breast
[3] = tested on: DU-145 prostate
[4] = tested on: NCI/ADR-RES ovarian
[5] = tested on: SN12C renal
[6] = tested on: PC-3 prostate
[7] = tested on: RPMI-8226 leukemia
[8] = tested on: KM12 colon
[9] = tested on: HOP-92 NSCLC
[10] = tested on: SK-MEL-2 melanoma

COc1cc(C(=O)N2CCN(C=O)C2=S)cc(OC)c1OC
GI50 [1]: 16.4 µM
TGI [1]: 37.8 µM
GI50 [2]: 27.6 µM
TGI [2]: > 100 µM
GI50 [3]: 19.6 µM
TGI [3]: 56.6 µM
GI50 [4]: 36.1 µM
TGI [4]: > 100 µM
GI50 [5]: 20.2 µM
TGI [5]: 40.2 µM
GI50 [6]: 22.2 µM
TGI [6]: 58.2 µM
TGI [7]: 42.3 µM
GI50 [8]: 14.4 µM
TGI [8]: 29.5 µM
GI50 [9]: 9.26 µM
TGI [9]: 26.2 µM
GI50 [10]: 19.9 µM
TGI [10]: 42 µM

O=C(Nc1ccc2ncccc2c1)Nc1ccc2ncccc2c1
TGI [1]: > 100 µM
TGI [2]: > 100 µM
TGI [3]: > 100 µM
TGI [4]: > 100 µM
TGI [5]: > 100 µM
TGI [6]: > 100 µM
TGI [7]: > 100 µM
TGI [8]: > 100 µM
TGI [9]: > 100 µM
TGI [10]: > 100 µM

C/C=C(\C)C(=O)O[C@H]1C=CC(=O)O[C@H]1CCC(=O)[C@H](C)O
GI50 [1]: 12.9 µM
TGI [1]: 26.4 µM
GI50 [2]: 16.2 µM
TGI [2]: 39 µM
GI50 [3]: 16.9 µM
TGI [3]: 33.1 µM
GI50 [4]: 21.1 µM
TGI [4]: 56.1 µM
GI50 [5]: 18.5 µM
TGI [5]: 46.9 µM
GI50 [6]: 15.8 µM
TGI [6]: 32 µM
GI50 [7]: 8.88 µM
TGI [7]: 34 µM
GI50 [8]: 17.8 µM
TGI [8]: 38.8 µM
GI50 [9]: 14.3 µM
TGI [9]: 28.3 µM
GI50 [10]: 19.1 µM
TGI [10]: 47.3 µM

CCOC(=O)c1ccc(NC(=O)Oc2ccc3c(C)cc(=O)oc3c2)cc1
TGI [1]: > 100 µM
TGI [2]: 84.1 µM
TGI [3]: > 100 µM
TGI [4]: > 100 µM
TGI [5]: > 100 µM
TGI [6]: > 100 µM
TGI [7]: 72.9 µM
TGI [8]: > 100 µM
TGI [9]: 54.1 µM
TGI [10]: 79 µM

C=C1C(=O)OC2CC(C)C(C(CC(C)=O)OC(C)=O)=CCC12 (stereo not drawn)
TGI [1]: 29.6 µM
TGI [2]: > 100 µM
TGI [3]: 30.1 µM
TGI [4]: > 45 µM
TGI [5]: 15 µM
TGI [6]: 41.8 µM
TGI [7]: 21.6 µM
TGI [8]: 37.2 µM
TGI [9]: 21.2 µM
TGI [10]: 40.8 µM

CCN(CC)CCC(CNc1ccnc2cc(Cl)ccc12)c1ccc(Cl)cc1 (stereo not drawn)
GI50 [1]: 1.37 µM
TGI [1]: 2.85 µM
GI50 [2]: 1.66 µM
TGI [2]: 4.67 µM
GI50 [3]: 5.44 µM
TGI [3]: 17.7 µM
GI50 [4]: 2.06 µM
TGI [4]: 8.65 µM
GI50 [5]: 1.84 µM
TGI [5]: 10.4 µM
GI50 [6]: 3.28 µM
TGI [6]: 17.7 µM
GI50 [7]: 1.02 µM
TGI [7]: 3.67 µM
GI50 [8]: 1.79 µM
TGI [8]: 4.44 µM
GI50 [9]: 0.995 µM
TGI [9]: 3.19 µM
GI50 [10]: 1.57 µM
TGI [10]: 3.18 µM

COC(=O)COc1ccccc1/C=C1\N=C(c2ccccc2)N(c2cc(C(F)(F)F)ccc2Cl)C1=O
GI50 [1]: 55.9 µM
TGI [1]: > 100 µM
GI50 [2]: 35.6 µM
TGI [2]: > 100 µM
GI50 [3]: 22.1 µM
TGI [3]: 47.1 µM
GI50 [4]: 45.8 µM
TGI [4]: > 100 µM
GI50 [5]: 60.5 µM
TGI [5]: > 100 µM
GI50 [6]: 32.5 µM
TGI [6]: > 100 µM
GI50 [7]: 24.9 µM
TGI [7]: 72.7 µM
GI50 [8]: 41.7 µM
TGI [8]: > 100 µM
GI50 [9]: 33.2 µM
TGI [9]: > 100 µM
GI50 [10]: 28.5 µM
TGI [10]: > 100 µM

NC(=O)/C=C/C(=O)c1c(Cl)cccc1Cl
GI50 [1]: 1.36 µM
TGI [1]: 2.67 µM
GI50 [2]: 2.2 µM
TGI [2]: 5.15 µM
GI50 [3]: 1.65 µM
TGI [3]: 3.04 µM
GI50 [4]: 1.77 µM
TGI [4]: 3.44 µM
GI50 [5]: 1.4 µM
TGI [5]: 2.69 µM
GI50 [6]: 1.46 µM
TGI [6]: 2.81 µM
GI50 [7]: 0.264 µM
TGI [7]: 1.14 µM
GI50 [8]: 1.59 µM
TGI [8]: 3.02 µM
GI50 [9]: 0.574 µM
TGI [9]: 1.94 µM
GI50 [10]: 1.83 µM
TGI [10]: 4.01 µM

CC(=O)Nc1ccc(S(=O)(=O)N2C(=O)CCC2C(=O)Nc2ccc(Br)cc2)cc1 (stereo not drawn)
GI50 [1]: 1.89 µM
TGI [1]: 11.3 µM
GI50 [2]: 3.05 µM
TGI [2]: 22.5 µM
GI50 [3]: 3.25 µM
TGI [3]: 15.8 µM
GI50 [4]: 2.47 µM
TGI [4]: > 100 µM
GI50 [5]: 2.79 µM
TGI [5]: 36 µM
GI50 [6]: 0.984 µM
TGI [6]: 12.1 µM
GI50 [7]: 0.806 µM
TGI [7]: 4.46 µM
GI50 [8]: 1.82 µM
TGI [8]: 13.7 µM
GI50 [9]: 1.13 µM
TGI [9]: 5.25 µM
GI50 [10]: 4.05 µM
TGI [10]: 17.8 µM

COc1ccc(/C=C\[N+](=O)[O-])cc1OC
GI50 [1]: 1.5 µM
TGI [1]: 4.72 µM
GI50 [2]: 2.92 µM
TGI [2]: 24.7 µM
GI50 [3]: 3.1 µM
TGI [3]: 11.9 µM
GI50 [4]: 7.08 µM
TGI [4]: 36.8 µM
GI50 [5]: 3.06 µM
TGI [5]: 13.2 µM
GI50 [6]: 3.01 µM
TGI [6]: 8.85 µM
GI50 [7]: 2.06 µM
TGI [7]: 5.28 µM
GI50 [8]: 2.73 µM
TGI [8]: 7.54 µM
GI50 [9]: 12.4 µM
TGI [9]: 48.4 µM
GI50 [10]: 2.64 µM
TGI [10]: 7.39 µM

CCCCC#CC1=C(Br)C(=O)OC1
GI50 [1]: 1.59 µM
TGI [1]: > 20.1 µM
GI50 [2]: 3.89 µM
TGI [2]: 23.1 µM
GI50 [3]: 0.752 µM
TGI [3]: 2.34 µM
GI50 [4]: 2.04 µM
TGI [4]: 5.9 µM
GI50 [5]: 1.58 µM
TGI [5]: 4.27 µM
GI50 [6]: 1.28 µM
TGI [6]: 9.43 µM
GI50 [7]: 0.32 µM
TGI [7]: 2.72 µM
GI50 [8]: 1.8 µM
TGI [8]: 3.89 µM
GI50 [9]: 2.04 µM
TGI [9]: 18.7 µM
GI50 [10]: 3.12 µM
TGI [10]: 15.2 µM

COC(=O)c1ccc2c(c1)nc(NC(=O)c1ccccc1)n2CCCc1ccccc1
GI50 [1]: 2.73 µM
TGI [1]: > 100 µM
GI50 [2]: 30.2 µM
TGI [2]: > 100 µM
GI50 [3]: 11.5 µM
TGI [3]: > 100 µM
GI50 [4]: 4.1 µM
TGI [4]: > 100 µM
GI50 [5]: 17.6 µM
TGI [5]: > 100 µM
GI50 [6]: 4.07 µM
TGI [6]: > 100 µM
GI50 [7]: 5.31 µM
TGI [7]: > 100 µM
GI50 [8]: 4.5 µM
TGI [8]: > 100 µM
GI50 [9]: 6 µM
TGI [9]: > 100 µM
GI50 [10]: 5.58 µM
TGI [10]: > 100 µM

Nc1nn2cc(F)cnc2c1C(=O)Nc1cncc(F)c1N1CCC(C(=O)N2CCN(C3COC3)CC2)CC1
GI50 [1]: 0.656 µM
TGI [1]: > 100 µM
GI50 [2]: 0.191 µM
TGI [2]: 1.48 µM
GI50 [3]: 0.469 µM
TGI [3]: > 100 µM
GI50 [4]: 0.749 µM
TGI [4]: > 48.5 µM
GI50 [5]: 0.987 µM
TGI [5]: 6.17 µM
GI50 [6]: 2.06 µM
TGI [6]: > 100 µM
GI50 [7]: 1.2 µM
GI50 [8]: 0.369 µM
TGI [8]: > 100 µM
GI50 [9]: 0.653 µM
TGI [9]: 13 µM
GI50 [10]: 0.194 µM
TGI [10]: 0.821 µM

COc1cccc(CC(C)=C(c2ccc(OCCN(C)C)cc2)c2ccc(OCCN(C)C)cc2)c1
GI50 [1]: 0.903 µM
TGI [1]: 2.42 µM
GI50 [2]: 3.58 µM
TGI [2]: 8.9 µM
GI50 [3]: 3.86 µM
TGI [3]: 8.26 µM
GI50 [4]: 3.76 µM
TGI [4]: 8.32 µM
GI50 [5]: 4.19 µM
TGI [5]: 8.69 µM
GI50 [6]: 1.95 µM
TGI [6]: 6.82 µM
GI50 [7]: 0.842 µM
TGI [7]: 2.24 µM
GI50 [8]: 4.08 µM
TGI [8]: 8.77 µM
GI50 [9]: 0.865 µM
TGI [9]: 4.48 µM
GI50 [10]: 5.19 µM
TGI [10]: 10.9 µM
